Test results: patent US9504676B2, “Molecules inhibiting a metabolic pathway involving the Syk protein tyrosine kinase and method for identifying said molecules” (CENTRE NATIONAL DE LA RECHERCHE SCIENTIFIQUE, priority 2008, dated 2016)

Legend:
[1] = test system: BALB/c mice; experiment: Passive cutaneous anaphylaxis (PCA); assay type: in vivo; design: unit not given here; conditions: local intradermal injection in the ear
Procedure: (§1) Finally, to extend these observations to mast cell functions in vivo, the inventors tested the effects of C-13 on passive systemic (PSA) and cutaneous anaphylaxis (PCA) induced in BALB/c mice by administering DNP-specific IgE molecules followed by intravenous stimulation with DNP-KLH hapten. […] The intensity of systemic anaphylaxis was determined by measuring both the drop in body temperature and the increase in vascular permeability following antigen administration.
(§2) • 1) Chemical products and antibodies. A chemical bank of 3000 molecules (a varied subset) was acquired from ChemBridge, Inc. (San Diego, Calif.). Stocks of solutions of small molecules were prepared at a rate of 10 mM in DMSO (dimethylsulphoxide), except for C-13 (methyl 2-{5-[(3-benzyl-4-oxo-2-thioxo-1,3-thiazolidin-5-ylidene)methyl]-2-furyl}benzoate, ChemBridge ID No. 6197026) prepared in DMF (dimethylformamide). Unless specified otherwise, all the reagents were supplied by Sigma. […] The binding of G4G11 with Syk was assessed by adding the 9E10 monoclonal antibody conjugated with HRP detecting the amino acid sequence EQKLISEEDLN of human c-myc protein located at the C-terminal end of the scFv fragment. To generate Syk mutants, targeted mutagenesis was used on GST:Syk 6-242 protein and the binding of G4G11 with the mutants was assessed in the presence of 5 μM of C-13. • 3) Cells, culture conditions and functional tests. […]

[2] = test system: PLC-γ1 and PLC-γ2; experiment: Phosphorylation of PLC-γ1 and PLC-γ2 in mast cells; assay type: cell-based
Source text: To examine the functional similarities with G4G11, the inventors explored the biological effects of C-13 on mast cell activation. […] Similarly to the intrabody G4G11, C-13 inhibited the phosphorylation and FcεRI-induced kinase activity of Btk (FIG. 2A) and the phosphorylation of PLC-γ1 and PLC-γ2, the two PLC-γ isoforms expressed in mast cells (FIGS. 2A, C). PTK Lyn phosphorylates both Syk and Btk giving rise to the complete activation thereof and the subsequent phosphorylation of PLC-γ^18.
as §2, with “(dimethylformamide).” for “(dimethylformamide). Unless specified otherwise, all the reagents were supplied by Sigma.”

[3] = Observation of toxicity after administration to animals; assay type: in vivo, BALB/c mice
Source text: The pharmaceutical molecule screening approach described herein represents a generic platform wherein the initial use of antibodies makes it possible to detect the domains of the target molecule having a therapeutic potential, thus facilitating the design of chemical molecules (via in silico and/or in vitro screening) capable acting as functional antibody mimics and as potential protein-protein interaction inhibitors.
as §1

COC(=O)c1ccccc1-c1ccc(/C=C2/SC(=S)N(Cc3ccccc3)C2=O)o1 [Molecule C-13, methyl 2-{5-[(3-benzyl-4-oxo-2-thioxo-1,3-thiazolidin-5-ylidene)methyl]-2-furyl}benzoate]
estimated IC50, inhibitory effect on PCA [1]: ~25 | phosphorylation of PLC-γ1 and PLC-γ2 [2]: inhibited | signs of toxicity in the animals ([3]; after oral administration, prior to antigen stimulation): no obvious sign of toxicity | apparent toxic effect ([3]; oral or local administration, one hour to 12 days): lack of an apparent toxic effect
